Assays:
db/db mice = assay: Fed and fasted plasma glucose in db/db mice (Example 10); type: in vivo, mouse; conditions: 25 mg/kg s.c. twice weekly; for fasted plasma glucose: week 3, overnight fast, saline 343
Protocol: (§1) Seven-week old male C57B1/6J-Lepr db/db mice (Jackson Laboratory, Bar Harbor, Me.) were fed a diet with a fat content of about 14% and were subcutaneously injected with one or more of the oligomeric compounds of the invention or a control compound at a dose of 25 mg/kg two times per week. Glucose-6-phosphatase translocase antisense oligonucleotides used were ISIS 148985 (SEQ ID NO: 118) and ISIS 149008 (SEQ ID NO: 141). ISIS 116847 (SEQ ID NO: 143), targeted to mouse PTEN, was used as a positive control. The scrambled control oligonucleotide ISIS 141923 ([…], incorporated herein as SEQ ID NO: 144) served as a negative control along with saline-injected animals. ISIS 141923 and ISIS 116847 are chimeric oligonucleotides (“gapmers”) 20 nucleotides in length, composed of a central “gap” region consisting of 10 2′-deoxynucleotides, which is flanked on both sides (5′ and 3′) by five-nucleotide “wings”. The wings are composed of 2′-O-(2-methoxyethyl) nucleotides, also known as 2′-MOE nucleotides. The internucleoside (backbone) linkages are phosphorothioate throughout the oligonucleotide. All cytidine residues are 5-methylcytidines.
The effects of target inhibition on glucose metabolism were evaluated in the db/db mice treated with the oligomeric compounds of the invention. For seven animals per treatment group, plasma glucose (fed) was measured prior to the start of the treatment (week 0) and during weeks 2 and 4 of treatment. Fasted glucose measurements were made during week three, after animals were fasted overnight (about 15 hours). Data are expressed as the averages per treatment group.

[1] = mouse, in vivo, sc, 25 mg/kg
Protocol: as §1
Patients with the human glycogen storage disease type 1b have mutations in the glucose-6-phosphatase translocase gene. Because one manifestation of these mutations is a defect in hepatic glycogen […] leading to glycogen accumulation in the liver, the db/db mice were further evaluated at the end of the treatment period for liver glycogen stores. Tissue glycogen was measured using the Glucose Trinder Reagent (Sigma-Aldrich, St. Louis, Mo.). Results are presented as the average level from 5 animals per treatment. Glycogen levels of mice treated with saline alone were approximately 46 mg/g of tissue. Levels in mice treated with the positive control antisense compound ISIS 116847 had decreased levels of approximately 30 mg/g. Mice treated with the scrambled control compound ISIS 141923 had levels more similar to saline control of approximately 39 mg/g. Mice treated with ISIS 149008 or 148985, the antisense inhibitors of glucose-6-phosphatase translocase, had glycogen levels of approximately 38 mg/g and 37 mg/g, respectively.

[2] = Plasma triglycerides, cholesterol, free fatty acids, transaminases and lactate in db/db mice (Table 7); type: in vivo, mouse
Protocol: Seven-week old male C57B1/6J-Lepr db/db mice (Jackson Laboratory, Bar Harbor, Me.) were fed a diet with a fat content of about 14% (Formulab Diet 5008) and were subcutaneously injected with ISIS 116847 (SEQ ID NO: 143), ISIS 141923 (SEQ ID NO: 144), or ISIS 148985 (SEQ ID NO: 118), an antisense inhibitor of glucose-6-phosphatase translocase, […] weeks. […] Saline-injected animals served as controls. 48 hours after the eighth and final dose was administered, mice were sacrificed and target levels were evaluated in liver. RNA isolation and target mRNA expression level quantitation were performed as described by other examples herein.
To further assess the physiological effects resulting from inhibition of target mRNA, the db/db mice were evaluated at the end of the treatment period for plasma triglycerides, plasma cholesterol, free fatty acids (FFA), lactate and plasma transaminase levels. The transaminases ALT and AST are indicators of liver function. Plasma triglycerides, cholesterol, free fatty acids, and transaminases were measured by routine clinical analyzer instruments (e.g. Olympus Clinical Analyzer, Melville, N.Y.). Results are presented in table 7 as the averages from seven animals per treatment group.

[3] = Plasma neutrophils and lymphocytes in db/db mice (Table 9); type: in vivo, mouse
Protocol: Seven-week old male C57B1/6J-Lepr db/db mice (Jackson Laboratory, Bar Harbor, Me.) were fed a diet with a fat content of about 14% (Formulab Diet 5008) and were subcutaneously injected with ISIS 116847 (SEQ ID NO: 143), ISIS 141923 (SEQ ID NO: 144), or ISIS 148985 (SEQ ID NO: 118), an antisense inhibitor of glucose-6-phosphatase translocase, […] […] Saline-injected animals served as controls. 48 hours after the eighth and final dose was administered, mice were sacrificed and target levels were evaluated in liver. RNA isolation and target mRNA expression level quantitation were performed as described by other examples herein.
Because mutations in the glucose-6-phosphatase translocase gene responsible for human glycogen storage disease type 1b result in neutropenia, plasma neutrophils and lymphocytes were measured for animals in each treatment group.

ob/ob mice = assay: Fed and fasted plasma glucose in ob/ob mice; type: in vivo, mouse; conditions: 25 mg/kg s.c. twice weekly; for fasted plasma glucose: week 3, overnight fast, saline 297
Protocol: Seven-week old male C57B1/6J-Lep ob/ob mice (Jackson Laboratory, Bar Harbor, Me.) were fed a diet with a fat content of about 22% and were subcutaneously injected with oligonucleotides at a dose of 25 mg/kg two times per week. A total of eight doses were administered. Glucose-6-phosphatase translocase antisense oligonucleotides used were ISIS 148985 (SEQ ID NO: 118) and ISIS 149008 (SEQ ID NO: 141). ISIS 116847 ([…]; incorporated herein as SEQ ID NO: 143), targeted to mouse PTEN, was used as a positive control. Saline-injected animals served as negative controls. Animals were sacrificed 48 hours after the last dose of oligonucleotide was administered, and liver triglycerides, liver glycogen, and target reduction in liver were measured.
The effects of target inhibition on glucose metabolism were evaluated in the ob/ob mice treated as described above. Routine clinical analyzer instruments (Olympus Clinical Analyzer, Melville, N.Y.) were used to measure plasma glucose. Plasma glucose was measured prior to antisense oligonucleotide treatment (week 0) and during the second and fourth week of treatment. Fasted glucose measurements were made during week 3 after an overnight (about 14 hours) fast. Data are presented as the average from seven animals per treatment group.

[4] = 25 mg/kg twice weekly 4 weeks (25 mg/mL [sic]), saline 0.8
[5] = 25 mg/kg twice weekly 4 weeks (25 mg/mL [sic]), saline 56
[6] = 25 mg/kg twice weekly 4 weeks (25 mg/mL [sic]), saline 59
[7] = 25 mg/kg twice weekly 4 weeks (25 mg/mL [sic]), saline 108
[8] = 25 mg/kg twice weekly 4 weeks (25 mg/mL [sic]), saline 152
[9] = 25 mg/kg twice weekly 4 weeks (25 mg/mL [sic]), saline 213
[10] = 25 mg/kg twice weekly 4 weeks (25 mg/mL [sic]), saline 0.9
[11] = 25 mg/kg twice weekly 4 weeks (25 mg/mL [sic]), saline 2.7
[12] = week 0 (prior to treatment), saline 339
[13] = dose 12.5 mg/mL [sic], twice weekly 4 weeks
[14] = dose printed 6 mg/mL, twice weekly 4 weeks

Row | Sequence | fed plasma glucose (db/db mice; week 0, saline 270) | fed plasma glucose (db/db mice; week 2, saline 534) | fasted plasma glucose (db/db mice) | fed plasma glucose (db/db mice; week 4, saline 627) | Liver glycogen levels [1] | Free Fatty Acids [2, 4] | ALT [2, 5] | AST [2, 6] | Lactate [2, 7] | Cholesterol [2, 8] | Plasma Triglycerides [2, 9] | Neutrophils Plasma [3, 10] | Lymphocytes Plasma [3, 11] | fed plasma glucose (ob/ob mice; [12]) | fed plasma glucose (ob/ob mice; week 2, saline 401) | fasted plasma glucose (ob/ob mice) | fed plasma glucose (ob/ob mice; week 4, saline 372) | also measured
1 | CCTTCCCTGAAGGTTCCTCC (chemistry not given here) [ISIS 141923, scrambled control oligonucleotide, negative control, reference compound] | approximately 272 mg/dL | ~538 mg/dL | approximately 287 mg/dL | ~563 mg/dL | approximately 39 mg/g | 0.9 mEq/L | 72 IU/L | 56 IU/L | 128 mg/dL | 167 mg/dL | 166 mg/dL | 0.9 cells/nL | 2.6 cells/nL | – | – | – | – | –
2 | CTGCTAGCCTCTGGATTTGA (chemistry not given here) [ISIS 116847, positive control oligonucleotide targeted to mouse PTEN, reference compound] | approximately 267 mg/dL | ~360 mg/dL | approximately 241 mg/dL | ~334 mg/dL | approximately 30 mg/g | 0.8 mEq/L | 70 IU/L | 62 IU/L | 131 mg/dL | 161 mg/dL | 166 mg/dL | 0.8 cells/nL | 3.1 cells/nL | approximately 339 mg/dL | ~230 mg/dL | approximately 286 mg/dL | ~188 mg/dL | –
3 | GCTCCATAGCGAGGACTCGA (chemistry not given here) [ISIS 148985] | approximately 267 mg/dL | ~512 mg/dL | approximately 288 mg/dL | ~552 mg/dL | ~37 mg/g | 1.1 mEq/L | 73 IU/L | 48 IU/L | 105 mg/dL | 164 mg/dL | 202 mg/dL | 1.0 cells/nL | 3.3 cells/nL | approximately 348 mg/dL | ~315 mg/dL | approximately 293 mg/dL | ~241 mg/dL | –
4 | TATACAAGTCGGTTTGCCCT (chemistry not given here) [ISIS 149008] | approximately 272 mg/dL | ~390 mg/dL | approximately 241 mg/dL | ~347 mg/dL | approximately 38 mg/g | 0.9 mEq/L | 68 IU/L | 55 IU/L | 129 mg/dL | 167 mg/dL | 197 mg/dL | 1.0 cells/nL | 3.7 cells/nL | approximately 344 mg/dL | ~249 mg/dL | approximately 237 mg/dL | ~153 mg/dL | ALT [2, 13]: 64 IU/L; AST [2, 13]: 56 IU/L; Cholesterol [2, 13]: 172 mg/dL; Free Fatty Acids [2, 13]: 1.0 mEq/L; Lactate [2, 13]: 127 mg/dL; Plasma Triglycerides [2, 13]: 247 mg/dL; ALT [2, 14]: 59 IU/L; AST [2, 14]: 49 IU/L; Cholesterol [2, 14]: 158 mg/dL; Free Fatty Acids [2, 14]: 0.9 mEq/L; Lactate [2, 14]: 125 mg/dL; Plasma Triglycerides [2, 14]: 205 mg/dL; Lymphocytes Plasma ([3]; dose 12.5 mg/mL [sic]): 3.2 cells/nL; Neutrophils Plasma ([3]; dose 12.5 mg/mL [sic]): 0.9 cells/nL; Lymphocytes Plasma ([3]; dose printed 6 mg/mL): 2.8 cells/nL; Neutrophils Plasma ([3]; dose printed 6 mg/mL): 1.1 cells/nL
